# Laboratory results taken from PMC10818380, “Triphenylphosphonium Analogs of Short Peptide Related to Bactenecin 7 and Oncocin 112 as Antimicrobial Agents” (Pharmaceutics, 2024).
# Like-named read-outs stand apart in the source and are kept apart here. Square brackets hold non-standard residues; d marks the D form. Peptide text beside a SMILES is read from it. * marks the point of attachment. X2 = c1ccc([P+](CCCCCCCCCCN*)(c2ccccc2)c2ccccc2)cc1; X1 = c1ccc([P+](CCN*)(c2ccccc2)c2ccccc2)cc1
# Assays:
# [1] = test system: 70S E. coli ribosome; assay: Competition-binding assay, displacement of BODIPY-Bac(1–10), fluorescence anisotropy; conditions: read-out: apparent dissociation constant (KD)
# Description: 70S ribosomes were isolated from E. coli MRE600 cells according to a published procedure. The binding of BODIPY-Bac(1–10) to 70S E. coli ribosomes was performed according to the following procedure. BODIPY-Bac(1–10) (16 nM) was incubated with ribosomes (from 0.5 nM to 2000 nM) for 2 h at 26 °C in a buffer containing 20 mM of HEPES-KOH (pH 7.5), 50 mM of NH4Cl, 10 mM of Mg(CH3COO)2, 4 mM of β-mercaptoethanol, and 0.05% Tween-20. The binding affinities of peptides 1 and 2, their TPP analogs 3–5, as well as the control compounds for the E. coli ribosome were analyzed via a competition-binding assay using fluorescently labeled BODIPY-Bac(1–10) or BODIPY-ERY, as described before in [38, 54]. The fluorescent compound (16 nM) was mixed with ribosomes (84 nM for BODIPY-Bac(1–10) and 46 nM for BODIPY-ERY) in the buffer. Solutions of the tested compounds were added to the obtained complexes to final concentrations ranging from 0.01 to 100 µM. The mixtures were incubated for 2 h at 26 °C, and then the values of fluorescence anisotropy were measured with a VICTOR X5 Multilabel Plate Reader (PerkinElmer, Waltham, MA, USA) using a 384-well plate. The excitation wavelength was 485 nm, and the emission wavelength was 535 nm. From the data obtained, apparent dissociation constants were calculated.
# [2] = test system: bacterial translation (E. coli S30 extract); assay: In vitro translation inhibition of firefly luciferase mRNA, E. coli S30 extract; assay type: biochemical; conditions: 30 µM
# Description: Briefly, in vitro-transcribed firefly luciferase mRNA (fluc) was translated using the E. coli S30 Extract System for Linear Templates (Promega, Madison, WI, USA). Reaction mixtures (with a 5 μL total volume) supplemented with 0.1 mM of a mixture of all canonical amino acids, 4 U of RiboLock RNase Inhibitor (Thermo Fisher Scientific, Waltham, MA, USA), and 0.1 mM of D-luciferin (Sigma-Aldrich, Burlington, MA, USA) were pre-incubated at RT for 5 min after the addition of the tested compounds at a final concentration of 30 µM. Then, 50 ng of the mRNA was added to each reaction tube, and the mixtures were immediately subjected to continuous chemiluminescence measurements using the VICTOR X5 Multilabel Plate Reader (PerkinElmer, Waltham, MA, USA) at 37 °C for 30 min. The maximal rates of the firefly luciferase (Fluc) accumulation were calculated using the OriginPro 7.5 software. The values were normalized to a positive control (0.3% DMSO, assigned a value of 100%).
# [3] = test system: E. coli SQ171 ΔtolC (A2059G) and JW5503 (∆tolC) (KanS) ermC; assay: Antibacterial activity on agar plates, macrolide-resistant strains; assay type: cell-based; conditions: Figure 3
# Description: Antibiotic activity was also evaluated against the following strains: E. coli JW5503 ΔtolC (KanS) ermC, modified with the plasmid pKH80 [59], providing resistance to erythromycin due to the expression of ErmC methyltransferase; E. coli SQ171 ΔtolC transformed with the pAM552 plasmid; E. coli SQ171 ΔtolC modified with the pAM552 plasmid with A2059G substitution in the 23S rRNA; E. coli JW1052 ΔmdtH; E. coli JW0912 ΔompF; and E. coli JW0368 ΔsbmA [57]. The procedure was performed as described previously in [33]. In short, Petri dishes filled with LB solid medium containing a selective antibiotic and 1.5% agar were covered with the tested strains. After that, 1 µL of 10 mM water solutions of Bac(1–10), Bac(1–10, R/Y), Bac(1–10, R/Y)-Cn-TPP, TPP-C10-Bac(1–10, R/Y), and Onc112, LEV (25 μg/mL) in water, and ERY (5 mg/mL and 50 mg/mL) in DMSO were applied onto the agar plates. After overnight incubation at 37 °C, the plates were scanned using the ChemiDoc^TM Imagining System (Bio-Rad Laboratories, Hercules, CA, USA) in three channels (Cy2, Cy3, and Cy5). The obtained images were processed in the Image Lab^TM software (Version 6.0.1, Bio-Rad).
# [4] = test system: B. subtilis 168; assay: microbe, parasite or virus in culture; assay type: cell-based
# Description: (§1) The MIC values for Bac(1–10), Bac(1–10, R/Y), Bac(1–10, R/Y)-Cn-TPP, TPP-C10-Bac(1–10, R/Y), and Onc112 were determined via LB broth microdilution, as recommended by CLSI in the Methods for Dilution Antimicrobial Susceptibility Tests for Bacteria that Grow Aerobically, Approved Standard, 9th ed., CLSI document M07-A9, using in-house-prepared panels. The compounds were diluted in a 96-well microtiter plate to final concentrations ranging from 0.1 to 100 µM in a 200 µL aliquot of the bacterial suspension, followed by incubation at 37 °C for 18 h. The cell concentration was estimated according to the absorbance (A600). The measurements were performed with a VICTOR X5 Multilabel Plate Reader (PerkinElmer, Waltham, MA, USA). The following bacterial strains were used: E. coli BW25113, E. coli JW0368 ΔsbmA, B. subtilis 168, and B. subtilis CFR [39].
# [5] = test system: B. subtilis CFR; assay: microbe, parasite or virus in culture; assay type: cell-based; conditions: CFR, 18 h
# Description: as §1
# [6] = test system: E. coli BW25113; assay: microbe, parasite or virus in culture; assay type: cell-based; conditions: E. coli BW25113, 37 °C, 18 h
# Description: as §1
# [7] = test system: E. coli JW0368 ΔsbmA; assay: microbe, parasite or virus in culture; assay type: cell-based; conditions: for MIC: E. coli ∆sbmA, 37 °C, 18 h; for difference of MIC values, E. coli ΔsbmA versus wild type: ratio of MIC values of Table 1
# Description: as §1
SMILES,Kd ([1]; CI (α = 0.05)),inhibition of bacterial translation of firefly luciferase (Fluc) mRNA [2],bacterial growth inhibition in macrolide-resistant E. coli strains [3],"MIC ([4]; B. subtilis 168, 37 °C, 18 h)",MIC [5],MIC [6],MIC [7],"difference of MIC values, E. coli ΔsbmA versus wild type [7]","comparison of MIC values, E. coli ΔsbmA versus wild type ([7]; MIC values of Table 1)",Kd ([1]; Figure S3B),"MIC ([4]; 168, 18 h)"
"CC[C@H](C)[C@H](NC(=O)[C@H](CCCNC(=N)N)NC(=O)[C@@H](N)CCCNC(=N)N)C(=O)N[C@@H](CCCNC(=N)N)C(=O)N1CCC[C@H]1C(=O)N[C@@H](CCCNC(=N)N)C(=O)N1CCC[C@H]1C(=O)N1CCC[C@H]1C(=O)N[C@@H](Cc1ccc(O)cc1)C(=O)N[C@@H](CC(C)C)C(=O)NCC[P+](c1ccccc1)(c1ccccc1)c1ccccc1 [Compound 3, Bac(1–10, R/Y)-C2-TPP] (H-RRIRPRPPYL-X1; N-terminus assumed)",260 ± 30 nM,almost completely,showed bacterial-growth-inhibiting activity,12.5 µM,50 µM,26.3 µM,>100 µM,four,,,
"CC[C@H](C)[C@H](NC(=O)[C@H](CCCNC(=N)N)NC(=O)[C@@H](N)CCCNC(=N)N)C(=O)N[C@@H](CCCNC(=N)N)C(=O)N1CCC[C@H]1C(=O)N[C@@H](CCCNC(=N)N)C(=O)N1CCC[C@H]1C(=O)N1CCC[C@H]1C(=O)N[C@@H](Cc1ccc(O)cc1)C(=O)N[C@@H](CC(C)C)C(=O)NCCCCCCCCCC[P+](c1ccccc1)(c1ccccc1)c1ccccc1 [Compound 4, Bac(1–10, R/Y)-C10-TPP] (H-RRIRPRPPYL-X2; N-terminus assumed)",250 ± 40 nM,almost completely,showed bacterial-growth-inhibiting activity,1.6 µM,0.8 µM,100 µM,100 µM,,the same,,
"CC[C@H](C)[C@H](NC(=O)[C@@H](CCCNC(=N)N)NC(=O)[C@H](CCCNC(=N)N)NC(=O)[C@@H]1CCCN1C(=O)[C@@H]1CCCN1C(=O)[C@H](CCCNC(=N)N)NC(=O)[C@@H]1CCCN1C(=O)[C@H](CCCNC(=N)N)NC(=O)[C@@H]1CCCN1C(=O)[C@H](CC(C)C)NC(=O)[C@H](Cc1ccc(O)cc1)NC(=O)[C@@H]1CCCN1C(=O)[C@@H]1CCCN1C(=O)[C@H](CCCCN)NC(=O)[C@H](CC(=O)O)NC(=O)[C@@H](N)C(C)C)C(=O)N[C@@H](Cc1ccc(O)cc1)C(=O)N[C@@H](CC(N)=O)C(=O)N[C@H](CCCNC(=N)N)C(N)=O [Onc112, reference compound] (H-VDKPPYLPRPRPPR[dR]IYN[dR]-NH2; N-terminus assumed)",,almost completely,showed activity against resistant E. coli bacteria comparable to that demonstrated in the wild type,,>50 µM,11.6 µM,>90 µM,approximately eight,,3 ± 1 nM,>50 µM
